From ChEMBL document CHEMBL4052699, “Synthesis, in vitro and in vivo giardicidal activity of nitrothiazole-NSAID chimeras displaying broad antiprotozoal spectrum” (Bioorg Med Chem Lett, 2017)
Values joined by “and” are separate entries in the source; they are usually repeats but may differ in a detail not shown here. Identical values can stand only once.

How the values were obtained:
Giardia intestinalis [1] = experiment: Antigiardial activity against Giardia intestinalis WB trophozoites infected in CD1 mouse dosed intragastrically 6 days after infection and measured 48 hrs post dose; format: functional; settings: Giardia duodenalis, po
[2] = Selectivity index, ratio of CC50 for cytotoxicity against African green monkey Vero cells to IC50 for Leishmania mexicana MHOM/MX/ISETGS; format: toxicity, cell-based; settings: read-out: Ratio CC50/IC50
Trypanosoma cruzi [3] = experiment: Potency index, ratio of IC50 for benznidazole to IC50 for test compound for antiprotozoal activity against Trypanosoma cruzi MHOM/MX/1994/Ninoa incubated for 72 hrs by Neubauer chamber based cell counting method; format: functional
[4] = Selectivity index, ratio of CC50 for cytotoxicity against African green monkey Vero cells to IC50 for Trichomonas vaginalis GT3
[5] = Cytotoxicity against African green monkey Vero cells incubated for 24 to 48 hrs by SRB assay; format: cell-based; settings: chlorocebus sabaeus
Leishmania amazonensis [6] = experiment: Antiprotozoal activity against Leishmania amazonensis IFLA/BR/67/PH-8 incubated for 72 hrs by Neubauer chamber based cell counting method; format: functional; settings: IFLA/BR/67/PH-8, 72 h
[7] = Selectivity index, ratio of CC50 for cytotoxicity against African green monkey Vero cells to IC50 for Giardia intestinalis Giardia intestinalis IMSS:0696:1 (genotype A)
Leishmania mexicana = experiment: Antiprotozoal activity against Leishmania mexicana MHOM/MX/ISETGS incubated for 72 hrs by Neubauer chamber based cell counting method; format: functional
Giardia intestinalis [8] = experiment: Antiprotozoal activity against Giardia intestinalis IMSS:0696:1 (genotype A) trophozoites incubated for 48 hrs; format: functional; settings: Giardia duodenalis
Giardia intestinalis [9] = experiment: Potency index, ratio of ED50 for metronidazole to ED50 for test compound for antigiardial activity against Giardia intestinalis WB trophozoites infected in CD1 mouse dosed intragastrically 6 days after infection and measured 48 hrs post dose; format: functional, Giardia duodenalis
Giardia intestinalis [10] = experiment: Potency index, ratio of ED50 for nitazoxanide to ED50 for test compound for antigiardial activity against Giardia intestinalis WB trophozoites infected in CD1 mouse dosed intragastrically 6 days after infection and measured 48 hrs post dose; format: functional, Giardia duodenalis
Trypanosoma cruzi [11] = experiment: Antiprotozoal activity against Trypanosoma cruzi MHOM/MX/1994/Ninoa incubated for 72 hrs by Neubauer chamber based cell counting method; format: functional
Trichomonas vaginalis [12] = experiment: Potency index, ratio of IC50 for metronidazole to IC50 for test compound for antiprotozoal activity against Trichomonas vaginalis GT3 trophozoites incubated for 48 hrs; format: functional
Trichomonas vaginalis [13] = experiment: Antiprotozoal activity against Trichomonas vaginalis GT3 trophozoites incubated for 48 hrs; format: functional; settings: GT3, 48 h
Trichomonas vaginalis [14] = experiment: Potency index, ratio of IC50 for nitazoxanide to IC50 for test compound for antiprotozoal activity against Trichomonas vaginalis GT3 trophozoites incubated for 48 hrs; format: functional
Giardia intestinalis [15] = experiment: Potency index, ratio of IC50 for nitazoxanide to IC50 for test compound for antiprotozoal activity against Giardia intestinalis IMSS:0696:1 (genotype A) trophozoites incubated for 48 hrs; format: functional, Giardia duodenalis
Giardia intestinalis [16] = experiment: Potency index, ratio of IC50 for metronidazole to IC50 for test compound for antiprotozoal activity against Giardia intestinalis IMSS:0696:1 (genotype A) trophozoites incubated for 48 hrs; format: functional, Giardia duodenalis
Leishmania amazonensis [17] = experiment: Potency index, ratio of IC50 for nitazoxanide to IC50 for test compound for antiprotozoal activity against Leishmania amazonensis IFLA/BR/67/PH-8 incubated for 72 hrs by Neubauer chamber based cell counting method; format: functional
Leishmania amazonensis [18] = experiment: Potency index, ratio of IC50 for pentamidine to IC50 for test compound for antiprotozoal activity against Leishmania amazonensis IFLA/BR/67/PH-8 incubated for 72 hrs by Neubauer chamber based cell counting method; format: functional

Row | IC50 (Leishmania amazonensis [6]) [µM] | IC50 (Leishmania mexicana) [µM] | IC50 (Giardia intestinalis [8]) [µM] | IC50 (Trypanosoma cruzi [11]) [µM] | IC50 (Trichomonas vaginalis [13]) [µM] | SMILES | ED50 (Giardia intestinalis [1]) | selectivity ratio [2] | Ratio IC50 (Trypanosoma cruzi [3]) | Ratio CC50/IC50 [4] | CC50 [5] [µM] | Ratio CC50/IC50 [7] | Ratio ED50 (Giardia intestinalis [9]) | Ratio ED50 (Giardia intestinalis [10]) | Ratio IC50 (Trichomonas vaginalis [12]) | Ratio IC50 (Trichomonas vaginalis [14]) | Ratio IC50 (Giardia intestinalis [15]) | Ratio IC50 (Giardia intestinalis [16]) | Ratio IC50 (Leishmania amazonensis [17]) | Ratio IC50 (Leishmania amazonensis [18])
1 |  |  |  |  |  | CC(=O)Oc1ccccc1C(=O)Nc1ncc([N+](=O)[O-])s1 [NITAZOXANIDE] | 1.1 mg/kg and 3.58 µmol/kg | 115 | 2 |  |  |  |  |  |  |  |  |  |  | 
2 | 3.43 | 16.6 | 0.172 | 12.2 | 0.032 | CC(C)(Oc1ccc(Cl)cc1)C(=O)Nc1ncc([N+](=O)[O-])s1 | 0.00384 mg/kg and 0.0113 µmol/kg | 6 | 2 | 686 | 22 | 127 | 50 - 300 | 50 - 300 | 10 | 2 |  |  |  | 
3 |  |  |  | > 50 |  | N=C(N)c1ccc(OCCCCCOc2ccc(C(=N)N)cc2)cc1 [PENTAMIDINE] |  | 3.2 |  | 12.3 |  | 11 |  |  |  |  |  |  |  | 
4 | 6.42 | 17.1 | 0.227 | 15 | 0.045 | CC(C)Cc1ccc(C(C)C(=O)Nc2ncc([N+](=O)[O-])s2)cc1 (racemic) | 0.00399 mg/kg and 0.012 µmol/kg | 31 | 2 | 4475 | 201 | 887 | 50 - 300 | 50 - 300 | 7 | 1.7 |  |  |  | 
5 |  | 3.1 |  | 7.45 |  | CC1CS(=O)(=O)CCN1/N=C/c1ccc([N+](=O)[O-])o1 (stereo unspecified) [NIFURTIMOX] |  |  |  |  |  |  |  |  |  |  |  |  |  | 
6 | > 50 | > 50 |  |  |  | O=C(Cn1ccnc1[N+](=O)[O-])NCc1ccccc1 [BENZNIDAZOLE] |  |  |  |  |  |  |  |  |  |  |  |  |  | 
7 | 1.89 | 6.12 | 0.147 | 15.7 | 0.218 | O=C(Cc1ccccc1Nc1c(Cl)cccc1Cl)Nc1ncc([N+](=O)[O-])s1 |  |  | 2 |  |  |  |  |  |  |  | 8 | 38 |  | 
8 | 0.88 | 6.77 | 0.145 | > 50 | 0.134 | COc1ccc2c(c1)c(CC(=O)Nc1ncc([N+](=O)[O-])s1)c(C)n2C(=O)c1ccc(Cl)cc1 | 0.00171 mg/kg and 0.00353 µmol/kg | 15 |  | 96 | 13 | 89 | 321 | 1015 |  |  | 8 | 38 | 8 | 16
9 | 1.35 | 2.03 | 20 | 25.2 | 20 | CCCCCCCCCCCCCCCCOP(=O)([O-])OCC[N+](C)(C)C [MILTEFOSINE] |  |  |  |  | 0.12 |  |  |  |  |  |  |  |  | 
10 | > 50 | > 50 |  | > 50 |  | Cc1ncc([N+](=O)[O-])n1CCO [METRONIDAZOLE] |  | < 7 |  | 1134 |  | 72 |  |  |  |  |  |  |  | 
11 | 3.64 | 25.5 | 0.221 | 12.9 | 0.162 | COc1ccc2cc([C@H](C)C(=O)Nc3ncc([N+](=O)[O-])s3)ccc2c1 | 0.00766 mg/kg and 0.0215 µmol/kg | 49 | 2 | 1112 | 180 | 815 | 50 - 300 | 50 - 300 |  |  |  |  |  | 

Row | SMILES | IC50 (Leishmania amazonensis [6]) [µM] | IC50 (Leishmania mexicana) [µM] | IC50 (Giardia intestinalis [8]) [µM] | IC50 (Trypanosoma cruzi [11]) [µM] | IC50 (Trichomonas vaginalis [13]) [µM] | ED50 (Giardia intestinalis [1]) | selectivity ratio [2] | Ratio IC50 (Trypanosoma cruzi [3]) | Ratio CC50/IC50 [4] | CC50 [5] [µM] | Ratio CC50/IC50 [7] | Ratio ED50 (Giardia intestinalis [9]) | Ratio ED50 (Giardia intestinalis [10]) | Ratio IC50 (Trichomonas vaginalis [12]) | Ratio IC50 (Trichomonas vaginalis [14]) | Ratio IC50 (Giardia intestinalis [15]) | Ratio IC50 (Giardia intestinalis [16]) | Ratio IC50 (Leishmania amazonensis [17]) | Ratio IC50 (Leishmania amazonensis [18])
12 | O=[N+]([O-])c1cncs1 | > 50 | > 50 | 29.6 | > 50 | 52.9 |  |  |  |  | 441 |  |  |  |  |  |  |  |  | 
